These results are taken from patent US8759535B2, “Substituted fused imidazole derivatives, pharmaceutical compositions, and methods of use thereof” (High Point Pharmaceuticals, LLC, priority 2010, dated 2014).

Structures can show the parent of a compound that is named as a salt.

The test system of this test is HMOX1. Kind of test: HMOX1 Protein Assay (immunostaining of HO-1 in NHLF cells, GE InCell 1000). In kind it is cell-based. The conditions noted are these: Homo sapiens, fold change above DMSO treated cells, 16 h; for fold induction at 5 µM: 5 μM compound; for fold induction at 3 µM: 3 μM compound (asterisk). The essentials: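 NHLF cells seeded overnight in FGM-2, then exposed to compound or DMSO vehicle for 16 h, fixed, and immunostained for HO-1 with Hoechst nuclear counterstain; imaged on InCell 1000. Values are fold change over DMSO-treated cells, generally at 5 μM (0.8% DMSO), with asterisked entries at 3 μM.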

For the compound `CSCCCNC(=O)c1ccc2c(c1)nc(Nc1nc3ccc(OC(F)(F)F)cc3s1)n2C` [Example 108, 1-Methyl-2-(6-trifluoromethoxy-benzothiazol-2-ylamino)-1H-benzoimidazole-5-carboxylic acid (3-methylsulfanyl-propyl)-amide], the fold induction at 5 µM came out at 18.3.

With `Cn1c(Nc2nc3ccc(OC(F)(F)F)cc3s2)nc2cc(C(=O)NCCc3ccc(O)cc3)ccc21` [Example 251, 1-Methyl-2-(6-trifluoromethoxy-benzothiazol-2-ylamino)-1H-benzoimidazole-5-carboxylic acid [2-(4-hydroxy-phenyl)-ethyl]-amide], the fold induction at 5 µM was 29.6.

For `CCS(=O)(=O)CCNC(=O)c1ccc2c(c1)nc(Nc1nc3ccc(Cl)cc3s1)n2C` [Example 277, 2-(6-Chloro-benzothiazol-2-ylamino)-1-methyl-1H-benzoimidazole-5-carboxylic acid (2-ethanesulfonyl-ethyl)-amide], the fold induction at 3 µM was found to be 38.3.

Compound `C[C@@H](O)CN1CC[C@@H](NC(=O)c2ccc3c(c2)nc(Nc2nc4ccc(Cl)cc4s2)n3C)C1` [Example 296, 2-(6-Chloro-benzothiazol-2-ylamino)-1-methyl-1H-benzoimidazole-5-carboxylic acid [(R)-1-((R)-2-hydroxy-propyl)-pyrrolidin-3-yl]-amide] had a fold induction at 3 µM of 34.6.

For the compound `CN(C)CC(=O)N1CC[C@@H](NC(=O)c2ccc3c(c2)nc(Nc2nc4ccc(Cl)cc4s2)n3C)C1` [Example 308, 2-(6-Chloro-benzothiazol-2-ylamino)-1-methyl-1H-benzoimidazole-5-carboxylic acid [(R)-1-(2-dimethylamino-acetyl)-pyrrolidin-3-yl]-amide], the fold induction at 5 µM stood at 24.3.

As to `CCN(CC)c1cc2c(cc1C(=O)NCCN1CCOCC1)nc(Nc1nc3ccc(OC(F)(F)F)cc3s1)n2C` [Example 362, 6-Diethylamino-1-methyl-2-(6-trifluoromethoxy-benzothiazol-2-ylamino)-1H-benzoimidazole-5-carboxylic acid (2-morpholin-4-yl-ethyl)-amide], the fold induction at 5 µM turned out to be 13.

Compound `Cn1c(Nc2nc3ccc(OC(F)(F)F)cc3s2)nc2cc(C(=O)NCCn3ccnc3)ccc21` [Example 327, 1-Methyl-2-(6-trifluoromethoxy-benzothiazol-2-ylamino)-1H-benzoimidazole-5-carboxylic acid (2-imidazol-1-yl-ethyl)-amide] had a fold induction at 5 µM of 31.9.

Compound `CNCCn1c(Nc2nc3ccc(Cl)cc3s2)nc2cc(C(=O)NCC(=O)N(C)C)ccc21` [Example 367, 2-(6-Chloro-benzothiazol-2-ylamino)-1-(2-methylamino-ethyl)-1H-benzoimidazole-5-carboxylic acid dimethylcarbamoylmethyl-amide hydrochloride] returned a fold induction at 5 µM of 25.4.

Take `CN1CCC(N(C)C(=O)CNC(=O)c2ccc3c(c2)nc(Nc2nc4ccc(Cl)cc4s2)n3C)C1` (centres unmarked) [Example 395, 2-(6-Chloro-benzothiazol-2-ylamino)-1-methyl-1H-benzoimidazole-5-carboxylic acid {[methyl-(1-methyl-pyrrolidin-3-yl)-carbamoyl]-methyl}-amide]: the fold induction at 5 µM amounted to 72.

`CN1CCN(C(=O)CNC(=O)c2ccc3c(c2)nc(Nc2nc4ccc(Cl)cc4s2)n3C)CC1` [Example 426, 2-(6-Chloro-benzothiazol-2-ylamino)-1-methyl-1H-benzoimidazole-5-carboxylic acid [2-(4-methyl-piperazin-1-yl)-2-oxo-ethyl]-amide] had a fold induction at 5 µM of 25.1.

`Cn1c(Nc2nc3ccc(Cl)cc3s2)nc2cc(C(=O)NCCC#N)ccc21` [Example 213, 2-(6-Chloro-benzothiazol-2-ylamino)-1-methyl-1H-benzoimidazole-5-carboxylic acid (2-cyano-ethyl)-amide]: the fold induction at 5 µM was 48.6.

Consider `CO[C@@H]1CCN(C(=O)CNC(=O)c2ccc3c(c2)nc(Nc2nc4ccc(Cl)cc4s2)n3C)C1` [Example 408, 2-(6-Chloro-benzothiazol-2-ylamino)-1-methyl-1H-benzoimidazole-5-carboxylic acid [2-((R)-3-methoxy-pyrrolidin-1-yl)-2-oxo-ethyl]-amide], for which the fold induction at 3 µM was determined as 25.

Consider `Cn1c(Nc2nc3ccc(OC(F)(F)F)cc3s2)nc2cc(-c3ncc[nH]3)ccc21` [Example 196, [5-(1H-Imidazol-2-yl)-1-methyl-1H-benzimidazol-2-yl]-(6-trifluoromethoxy-benzothiazol-2-yl)-amine], for which the fold induction at 5 µM worked out at 11.4.

In the case of `Cn1c(Nc2nc3ccc(OC(F)(F)F)cc3s2)nc2cc(C(=O)NCC(=O)N3C[C@H](O)[C@@H](O)C3)ccc21` [Example 407, 1-Methyl-2-(6-trifluoromethoxy-benzothiazol-2-ylamino)-1H-benzoimidazole-5-carboxylic acid [2-((3S,4S)-3,4-dihydroxy-pyrrolidin-1-yl)-2-oxo-ethyl]-amide], the fold induction at 5 µM was 7.73.

The compound `CCNC(=O)c1ccc2c(c1)nc(Nc1nc3ccc(C(F)(F)F)cc3s1)n2C` [Example 26, 1-Methyl-2-(6-trifluoromethyl-benzothiazol-2-ylamino)-1H-benzoimidazole-5-carboxylic acid ethylamide] showed a fold induction at 5 µM of 15.5.

Take `CO[C@H]1CCN(C(=O)CNC(=O)c2ccc3c(c2)nc(Nc2nc4ccc(C(F)(F)F)cc4s2)n3C)C1` [Example 410, 1-Methyl-2-(6-trifluoromethyl-benzothiazol-2-ylamino)-1H-benzoimidazole-5-carboxylic acid [2-((S)-3-methoxy-pyrrolidin-1-yl)-2-oxo-ethyl]-amide]: the fold induction at 3 µM is 24.7.

Regarding `C[C@@H](O)CNC(=O)c1ccc2c(c1)nc(Nc1nc3ccc(C(F)(F)F)cc3s1)n2C` [Example 205, 1-Methyl-2-(6-trifluoromethyl-benzothiazol-2-ylamino)-1H-benzoimidazole-5-carboxylic acid ((R)-2-hydroxy-propyl)-amide], the fold induction at 3 µM amounted to 33.1.

`Cn1c(Nc2nc3ccc(OC(F)(F)F)cc3s2)nc2cc(C(=O)NCCc3cccc(O)c3)ccc21` [Example 252, 1-Methyl-2-(6-trifluoromethoxy-benzothiazol-2-ylamino)-1H-benzoimidazole-5-carboxylic acid [2-(3-hydroxy-phenyl)-ethyl]-amide]: the fold induction at 5 µM worked out at 13.1.

Regarding `CN1CCN(CCNC(=O)c2ccc3c(c2)nc(Nc2nc4ccc(OC(F)(F)F)cc4s2)n3C)CC1` [Example 337, 1-Methyl-2-(6-trifluoromethoxy-benzothiazol-2-ylamino)-1H-benzoimidazole-5-carboxylic acid [2-(4-methyl-piperazin-1-yl)-ethyl]-amide], the fold induction at 3 µM was found to be 12.7.

`Cn1c(Nc2nc3ccc(C(F)(F)F)cc3s2)nc2cc(C(=O)NCCCCO)ccc21` [Example 221, 1-Methyl-2-(6-trifluoromethyl-benzothiazol-2-ylamino)-1H-benzoimidazole-5-carboxylic acid (4-hydroxy-butyl)-amide] came in with a fold induction at 3 µM of 26.
